Measurements as given in US9284325B2, “Spectinamides as anti-tuberculosis agents” (UNIVERSITY OF TENNESSEE RESEARCH FOUNDATION, priority 2009, dated 2016).
In brackets after ≈: the same amount, converted by molar mass. Where a name gives a salt, the structure may show the parent alone. Read-outs that look alike come from different tables or passages of the source.

Legend:
M. tuberculosis H37Rv = experiment: MIC determination by microbroth dilution, anti-tuberculosis activity; assay type: cell-based, Mycobacterium tuberculosis
[1] = tested on: S. aureus 8325 or strain ATCC 29213; experiment: MIC determination by microbroth dilution; assay type: cell-based, Staphylococcus aureus; settings: S. aureus 8325 or strain ATCC 29213 (for 1471-1544); for MIC: Staphylococcus aureus, ATCC29213
[2] = tested on: Strep. pyogenes ATCC 700294; experiment: MIC determination by microbroth dilution; assay type: cell-based, Streptococcus pyogenes; settings: for MIC: Streptococcus pyogenes, ATCC700294, read-out: MIC S. pyogenes
[3] = tested on: Strep. pneumoniae DAW27 or strain R6; experiment: MIC determination by microbroth dilution; assay type: cell-based, Streptococcus pneumoniae; settings: Strep. pneumoniae DAW27 or strain R6 (for 1443-1544); for MIC: Streptococcus pneumoniae, read-out: MIC S. pneumoniae
E. faecalis ATCC 33186 = experiment: MIC determination by microbroth dilution; assay type: cell-based, Enterococcus faecalis; settings: for MIC: Enterococcus faecalis, ATCC33186
B. anthracis Sterne 34F2 = experiment: microbe, parasite or virus in culture; assay type: cell-based, Bacillus anthracis; settings: for MIC: Bacillus anthracis, STERNE34F2, read-out: MIC B. anthracis 34F2
[4] = tested on: Burkholderia cepacia ATCC 25416; experiment: MIC determination by microbroth dilution; assay type: cell-based; settings: for MIC: ATCC25416, read-out: MIC B. cepcia
[5] = tested on: Proteus mirabilis ATCC 25933; experiment: MIC determination by microbroth dilution; assay type: cell-based; settings: for MIC: ATCC25933
[6] = tested on: Proteus vulgaris ATCC 33420; experiment: MIC determination by microbroth dilution; assay type: cell-based; settings: for MIC: ATCC33420
[7] = tested on: Klebsiella pneumoniae ATCC 33495; experiment: MIC determination by microbroth dilution; assay type: cell-based; settings: for MIC: ATCC33495
[8] = tested on: Acinetobacter baumannii ATCC 19606; experiment: MIC determination by microbroth dilution; assay type: cell-based; settings: for MIC: ATCC19606
P. aeruginosa PAO1 = experiment: MIC determination by microbroth dilution; assay type: cell-based, Pseudomonas aeruginosa; settings: for MIC: Pseudomonas aeruginosa
[9] = tested on: Strenotrophomonas maltophilia ATCC 13637; experiment: MIC determination by microbroth dilution; assay type: cell-based
E. coli K12 = experiment: MIC determination by microbroth dilution; assay type: cell-based, Escherichia coli; settings: for MIC: Escherichia coli, K12
E. coli K12 ΔtolC = experiment: microbe, parasite or virus in culture; assay type: cell-based; settings: for MIC: Escherichia coli, read-out: MIC E. coli K12 ΔtolC
E. coli ribosomes = assay type: biochemical; settings: for IC50, 50% inhibition of luciferase biosynthesis in S30 assay: E. coli S30 transcription/translation assay; for relative inhibitory activity on luciferase production: tested at 0.66 and 6.6 μM, FIG. 5
Vero epithelial cells = settings: African green monkey
Borrelia burgdorferi = settings: spirochete Borrelia burgdorferi, Criswell et al.; cited from earlier work
[10] = Cytotoxicity, MTT cell proliferation assay; settings: African green monkey, Vero epithelial cells (ATCC CCL-81)
[11] = Mycobacterium tuberculosis, H37RV, 168 h, read-out: MIC

Row | Compound | MIC (M. tuberculosis H37Rv; [11]) [µg/mL] | MIC [1] [µg/mL] | MIC [2] [µg/mL] | MIC [3] [µg/mL] | MIC (E. faecalis ATCC 33186) [µg/mL] | MIC (B. anthracis Sterne 34F2) [µg/mL] | MIC [4] [µg/mL] | MIC [5] [µg/mL] | MIC [6] [µg/mL] | MIC [7] [µg/mL] | MIC [8] [µg/mL] | MIC (P. aeruginosa PAO1) [µg/mL] | MIC [9] [µg/mL] | MIC (E. coli K12) [µg/mL] | MIC (E. coli K12 ΔtolC) [µg/mL] | IC50, 50% inhibition of luciferase biosynthesis in S30 assay (E. coli ribosomes) [µg/mL] | relative inhibitory activity on luciferase production (E. coli ribosomes) | also measured
1 | CN[C@@H]1[C@H](O)[C@H](NC)[C@H]2O[C@@]3(O)C(=O)C[C@@H](C)O[C@H]3O[C@@H]2[C@H]1O [Spectinomycin, reference compound] | 25 (≈ 75.2 µM) | 25 (≈ 75.2 µM) | 25 (≈ 75.2 µM) | 50 (≈ 150 µM) | 50 (≈ 150 µM) | 25 (≈ 75.2 µM) | > 200 | > 200 | 50 (≈ 150 µM) | 50 (≈ 150 µM) | > 200 | 100 (≈ 301 µM) | > 200 | 12.5 to 50 (≈ 37.6 to 150 µM) | 12.5 (≈ 37.6 µM) | 0.32 |  | IC50 (E. coli ribosomes; E. coli S30 system, FIG. 4, read-out: concentration causing 50% reduction in the synthesis of luciferase): 900 nM; therapeutic index (IC50 divided by the MIC) (Vero epithelial cells): 41.5; frequency at which resistance arises (Borrelia burgdorferi): 10^−6; IC50 at 72 h [10]: 1030 µg/mL (≈ 3100 µM)
2 | CN[C@@H]1[C@H](O)[C@H](NC)C2O[C@]3(O)C(OC2[C@H]1O)O[C@H](C)C[C@H]3NC(=O)Cc1ccccc1OC (stereo partly drawn) [Compound 1448, 3′-Dihydro-3′-deoxy-4(R)-(2-methoxy-phenyl)acetylamino spectinomycin Dihydrochloride] | 200 | > 200 | 25 | 25 | > 200 | > 200 | 200 | > 200 | > 200 | > 200 | > 200 | > 200 | > 200 | > 200 | > 200 | 2.41 |  | 
3 | CN[C@@H]1[C@H](O)[C@H](NC)C2O[C@]3(O)C(OC2[C@H]1O)O[C@H](C)C[C@H]3NC(=O)c1ccco1 (stereo partly drawn) [Compound 1365, 3′-Dihydro-3′-deoxy-4(R)-furan-2-carboxylicamino spectinomycin Dihydrochloride] | 100 | > 200 | > 200 | > 200 | > 200 | > 200 | > 200 | > 200 | > 200 | > 200 | > 200 | > 200 | > 200 | > 200 | 200 |  | less active than 1329 | 
4 | 3′-Dihydro-3′-deoxy-4(R)-dodecanoylamino spectinomycin Dihydrochloride [Compound 1366] |  |  |  |  |  |  |  |  |  |  |  |  |  |  |  | 15.3 |  | MIC (M. tuberculosis H37Rv): 1.6 µg/mL; MIC S. aureus [1]: 25 µg/mL; MIC S. pyogenes [2]: >200 µg/mL; MIC S. pneumoniae [3]: 25 µg/mL; MIC E. faecalis (E. faecalis ATCC 33186): 25 µg/mL; MIC B. anthracis 34F2 (B. anthracis Sterne 34F2): >200 µg/mL; MIC B. cepcia [4]: >200 µg/mL; MIC P. mir [5]: >200 µg/mL; MIC P. vul [6]: >200 µg/mL; MIC K. pneu. [7]: >200 µg/mL; MIC A. bau. [8]: >200 µg/mL; MIC P. aer. (P. aeruginosa PAO1): 50 µg/mL; MIC S. mal [9]: 25 µg/mL; MIC E. coli K12 (E. coli K12; E. coli K12): >200 µg/mL; MIC E. coli K12 ΔtolC (E. coli K12 ΔtolC; tolC knockout strain, defective multi-drug efflux pump): 12.5 µg/mL
5 | CN[C@@H]1[C@H](O)[C@H](NC)C2O[C@]3(O)C(OC2[C@H]1O)O[C@H](C)C[C@H]3NCc1ccc(C)cc1 (stereo partly drawn) [Compound 1425, 3′-Dihydro-3′-deoxy-4(R)-(4-methyl)benzylamino spectinomycin Trihydrochloride] | 1000 | 50 | 12.5 | 100 | 100 | 100 | > 200 | > 200 | > 200 | > 200 | > 200 | 200 | > 200 | 200 | 100 |  | inhibited well | 
6 | CN[C@@H]1[C@H](O)[C@H](NC)C2O[C@]3(O)C(OC2[C@H]1O)O[C@H](C)C[C@H]3NCCC(C)C (stereo partly drawn) [Compound 1420, 3′-Dihydro-3′-deoxy-4(R)-(3-methyl)butylamino spectinomycin Trihydrochloride] | 200 | 100 | 200 | 100 | 200 | 50 | > 200 | > 200 | > 200 | > 200 | > 200 | 200 | 200 | 100 | 25 |  | inhibited well | 
7 | CN[C@@H]1[C@H](O)[C@H](NC)C2O[C@]3(O)C(OC2[C@H]1O)O[C@H](C)C[C@H]3NC(=O)c1ccc(F)cc1 (stereo partly drawn) [Compound 1364, 3′-Dihydro-3′-deoxy-4(R)-4-fluorobenzoylamino spectinomycin Dihydrochloride] | 50 | > 200 | 100 | > 200 | > 200 | 200 | > 200 | > 200 | > 200 | > 200 | > 200 | > 200 | > 200 | > 200 | 100 |  | less active than 1329 | 
8 | CN[C@@H]1[C@H](O)[C@H](NC)C2O[C@]3(O)C(OC2[C@H]1O)O[C@H](C)C[C@H]3NC(=O)CCc1cccnc1 (stereo partly drawn) [Compound 1299, 3′-Dihydro-3′-deoxy-4(R)-(3-pyridin-3-yl)propionylamino spectinomycin Dihydrochloride] | 25 | 200 | 200 | 200 | > 200 | 200 | > 200 | > 200 | > 200 | > 200 | > 200 | > 200 | > 200 | > 200 | 200 | 0.97 |  | 
9 | CN[C@@H]1[C@H](O)[C@H](NC)C2O[C@]3(O)C(OC2[C@H]1O)O[C@H](C)C[C@H]3NC(=O)Cc1ccncc1 (stereo partly drawn) [Compound 1413, 3′-Dihydro-3′-deoxy-4(R)-(pyridin-4-yl)acetylamino spectinomycin Dihydrochloride] | 100 | 50 | 200 | > 200 | > 200 | 200 | > 200 | > 200 | > 200 | > 200 | > 200 | > 200 | > 200 | 200 | 50 | 1.92 |  | 
10 | CN[C@@H]1[C@H](O)[C@H](NC)C2O[C@]3(O)C(OC2[C@H]1O)O[C@H](C)C[C@H]3NC(=O)Cc1ncccn1 (stereo partly drawn) [Compound 1439, 3′-Dihydro-3′-deoxy-4(R)-(pyrimidin-2yl)acetylamino spectinomycin Dihydrochloride] | > 200 | 25 | > 200 | 12.5 | 50 | 50 | > 200 | > 200 | > 200 | > 200 | > 200 | 50 | > 200 | 100 | 12.5 | 2.63 | less active than 1329 | 
